Reference: US11225480B2, “Malic enzyme inhibitors” (SUN PHARMA ADVANCED RESEARCH COMPANY LTD, priority 2019, dated 2022)
Counter-ions that a name gives are not always drawn.

Assays:
Format in all cases: biochemical
human ME3 enzyme = target: T1, human ME3 enzyme (Homo sapiens, UniProt Q16798); assay: ME3 inhibition assay (diaphorase/resazurin coupled fluorescence); settings: 10 μM compound concentration; read-out: Malic Enzyme 3 % inhibition (10 μM)
T1 sequence (Q16798 1-604): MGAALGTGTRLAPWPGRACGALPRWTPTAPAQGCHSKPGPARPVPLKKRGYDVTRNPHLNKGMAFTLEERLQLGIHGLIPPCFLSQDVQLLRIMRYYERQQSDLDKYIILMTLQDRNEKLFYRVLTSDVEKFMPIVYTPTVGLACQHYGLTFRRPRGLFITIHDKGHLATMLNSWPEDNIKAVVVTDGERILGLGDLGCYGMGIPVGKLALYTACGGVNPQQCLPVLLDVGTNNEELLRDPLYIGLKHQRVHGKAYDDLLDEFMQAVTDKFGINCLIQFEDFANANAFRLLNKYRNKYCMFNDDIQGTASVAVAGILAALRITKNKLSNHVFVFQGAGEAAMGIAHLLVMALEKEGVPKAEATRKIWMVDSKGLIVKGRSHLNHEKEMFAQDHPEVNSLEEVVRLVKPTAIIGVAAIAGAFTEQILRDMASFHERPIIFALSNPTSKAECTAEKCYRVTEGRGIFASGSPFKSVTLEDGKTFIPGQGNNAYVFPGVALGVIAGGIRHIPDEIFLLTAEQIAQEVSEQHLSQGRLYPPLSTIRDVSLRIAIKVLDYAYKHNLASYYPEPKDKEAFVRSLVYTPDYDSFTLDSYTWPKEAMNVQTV
In short: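 Coupled read-out: NADPH made by human ME3 (20 nM stock) drives diaphorase conversion of resazurin (50 μM) to resorufin; buffer 50 mM Tris-HCl pH 7.5, 10 mM MnCl2, 3 mM L-malate.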

human ME2 enzyme = human ME2 enzyme (Homo sapiens, UniProt P23368); assay: ME2 inhibition assay (diaphorase/resazurin coupled fluorescence); settings: 10 μM compound concentration; read-out: Malic Enzyme 2 % inhibition (10 μM)
In short: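 Human ME2 (10 μL of 60 nM) was preincubated 5 min at room temperature with compound (10 μM) in 50 mM Tris-HCl pH 7.5, 10 mM MnCl2, 7 mM L-malate, 50 μM resazurin and 0.025 mg/ml diaphorase. The reaction was started with 10 μL of 2 mM β-NAD+ and run 2 hours at room temperature. Resorufin fluorescence (ex 540/em 600 nm) was normalized to enzyme-only (100%) and no-enzyme (0%) controls as % activity.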

human ME1 enzyme = target: T2, human ME1 enzyme (Homo sapiens, UniProt P48163); assay: ME1 inhibition assay (diaphorase/resazurin coupled fluorescence); settings: 10 μM compound concentration; read-out: Malic Enzyme 1 % inhibition (10 μM)
T2 sequence (P48163 1-572): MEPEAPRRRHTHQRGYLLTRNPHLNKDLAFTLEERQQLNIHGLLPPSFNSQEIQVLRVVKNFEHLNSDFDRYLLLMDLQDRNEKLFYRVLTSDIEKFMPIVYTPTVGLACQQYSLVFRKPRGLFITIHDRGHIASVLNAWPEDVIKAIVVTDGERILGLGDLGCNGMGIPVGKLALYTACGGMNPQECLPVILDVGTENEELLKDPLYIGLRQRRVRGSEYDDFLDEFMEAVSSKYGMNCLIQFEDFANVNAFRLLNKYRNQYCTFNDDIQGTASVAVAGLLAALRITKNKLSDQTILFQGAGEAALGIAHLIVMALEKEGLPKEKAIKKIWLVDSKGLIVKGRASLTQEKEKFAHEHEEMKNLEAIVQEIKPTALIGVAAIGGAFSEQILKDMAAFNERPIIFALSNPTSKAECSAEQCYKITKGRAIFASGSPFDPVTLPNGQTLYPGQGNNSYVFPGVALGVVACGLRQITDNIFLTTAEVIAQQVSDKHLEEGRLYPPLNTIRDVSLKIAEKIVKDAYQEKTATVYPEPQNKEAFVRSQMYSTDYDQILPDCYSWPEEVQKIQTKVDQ
In short: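 Compounds at 10 μM preincubated 15 min in 50 mM Tris-HCl pH 7.5, 10 mM MnCl2, 2 mM L-malate, 10 μM resazurin, 0.01 mg/ml diaphorase, then human ME1 added for 5 min; reaction started with NADP+ and run 2 h at room temperature. Resorufin fluorescence (ex 540/em 600 nm) normalized to enzyme-only (100%) and no-enzyme (0%) controls.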

Sequence of human ME2 enzyme (P23368 19-584): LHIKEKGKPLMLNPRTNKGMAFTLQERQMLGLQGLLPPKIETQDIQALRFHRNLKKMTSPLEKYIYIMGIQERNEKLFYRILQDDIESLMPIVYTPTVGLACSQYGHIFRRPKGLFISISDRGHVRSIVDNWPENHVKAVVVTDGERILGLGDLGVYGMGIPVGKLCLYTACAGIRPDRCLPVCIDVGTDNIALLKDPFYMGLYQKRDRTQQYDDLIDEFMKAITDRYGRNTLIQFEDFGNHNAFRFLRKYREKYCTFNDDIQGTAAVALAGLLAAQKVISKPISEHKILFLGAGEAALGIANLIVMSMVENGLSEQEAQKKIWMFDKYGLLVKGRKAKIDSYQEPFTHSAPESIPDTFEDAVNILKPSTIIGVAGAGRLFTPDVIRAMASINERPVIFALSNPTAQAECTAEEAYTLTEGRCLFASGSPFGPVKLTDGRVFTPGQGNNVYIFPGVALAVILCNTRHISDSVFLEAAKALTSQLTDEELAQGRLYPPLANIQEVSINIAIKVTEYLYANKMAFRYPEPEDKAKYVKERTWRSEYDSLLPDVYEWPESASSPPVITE

SMILES: Cc1cccc(Cl)c1C(=O)N1CCN(c2ccc(O)cc2)CC1 [I.154, (2-Chloro-6-methylphenyl)-[4-(4-hydroxy-phenyl)-piperazin-1-yl]-methanone]
- inhibition at 10 µM (human ME3 enzyme): > 90%
- inhibition at 10 µM (human ME2 enzyme): > 90%
- inhibition at 10 µM (human ME1 enzyme): > 90%

SMILES: COc1ccc(C(=CC(=O)N2CCN(c3ccc(O)cn3)CC2)c2ccc(OC)cc2)cc1 [I.84, 1-[4-(5-Hydroxy-2-pyridyl)-piperazin-1-yl]-3,3-bis(4-methoxy-phenyl)-prop-2-en-1-one]
- inhibition at 10 µM (human ME3 enzyme): > 90%
- inhibition at 10 µM (human ME2 enzyme): 70 to 89%
- inhibition at 10 µM (human ME1 enzyme): 70 to 89%

SMILES: O=C(C(O)Cc1ccccc1)N1CCN(c2ccc(O)cn2)CC1 (stereo not drawn) [I.144, 2-Hydroxy-1-[4-(5-hydroxy-pyridin-2-yl)-piperazin-1-yl]-3-phenyl-propan-1-one]
- inhibition at 10 µM (human ME3 enzyme): > 90%
- inhibition at 10 µM (human ME2 enzyme): > 90%
- inhibition at 10 µM (human ME1 enzyme): 50 to 69%

SMILES: O=C(C1CC(c2ccccc2)C1)N1CCN(c2ccc(O)cn2)CC1 (stereo not drawn) [I.134, [4-(5-Hydroxy-pyridin-2-yl)-piperazin-1-yl]-(3-phenyl-cyclobutyl)-methanone]
- inhibition at 10 µM (human ME3 enzyme): > 90%
- inhibition at 10 µM (human ME2 enzyme): > 90%
- inhibition at 10 µM (human ME1 enzyme): > 90%

SMILES: O=C(CC12CC3CC(CC(O)(C3)C1)C2)N1CCN(c2ccc(O)cn2)CC1 [I.56, 2-(3-Hydroxy-1-adamantyl)-1-[4-(5-hydroxy-2-pyridyl)-piperazin-1-yl]ethanone]
- inhibition at 10 µM (human ME3 enzyme): > 90%
- inhibition at 10 µM (human ME2 enzyme): 70 to 89%
- inhibition at 10 µM (human ME1 enzyme): 50 to 69%

SMILES: CC(C)(CC(=O)N1CCN(c2ccc(O)cc2)CC1)c1ccccc1 [I.173, 1-[4-(4-Hydroxy-phenyl)-piperazin-1-yl]-3-methyl-3-phenyl-butan-1-one hydrochloride salt]
- inhibition at 10 µM (human ME3 enzyme): > 90%
- inhibition at 10 µM (human ME2 enzyme): > 90%
- inhibition at 10 µM (human ME1 enzyme): 70 to 89%

SMILES: O=C(CCc1ccc(F)cc1F)N1CCN(c2ccc(O)cn2)CC1 [I.152, 3-(2,4-Difluoro-phenyl)-1-[4-(5-hydroxy-pyridin-2-yl)-piperazin-1-yl]-propan-1-one]
- inhibition at 10 µM (human ME3 enzyme): > 90%
- inhibition at 10 µM (human ME2 enzyme): > 90%
- inhibition at 10 µM (human ME1 enzyme): > 90%

SMILES: O=C(COc1ccc(F)cc1)N1CCN(c2ccc(O)cn2)CC1 [I.164, 2-(4-Fluoro-phenoxy)-1-[4-(5-hydroxy-pyridin-2-yl)-piperazin-1-yl]-ethanone]
- inhibition at 10 µM (human ME3 enzyme): > 90%
- inhibition at 10 µM (human ME2 enzyme): > 90%
- inhibition at 10 µM (human ME1 enzyme): > 90%

SMILES: O=C(c1c2ccccc2cc2ccccc12)N1CCN(c2ccc(O)cn2)CC1 [I.64]
- inhibition at 10 µM (human ME3 enzyme): > 90%
- inhibition at 10 µM (human ME2 enzyme): 50 to 69%
- inhibition at 10 µM (human ME1 enzyme): 70 to 89%

SMILES: O=C(CCc1c2ccccc2cc2ccccc12)N1CCN(c2ccc(O)cc2)CC1 [I.53, 3-Anthracen-9-yl-1-[4-(4-hydroxy-phenyl)-piperazin-1-yl]-propan-1-one]
- inhibition at 10 µM (human ME3 enzyme): > 90%
- inhibition at 10 µM (human ME2 enzyme): > 90%
- inhibition at 10 µM (human ME1 enzyme): > 90%

SMILES: O=C(CC(O)c1ccccc1)N1CCN(c2ccc(O)cn2)CC1 (stereo not drawn) [I.130, 3-Hydroxy-1-[4-(5-hydroxy-pyridin-2-yl)-piperazin-1-yl]-3-phenyl-propan-1-one]
- inhibition at 10 µM (human ME3 enzyme): > 90%
- inhibition at 10 µM (human ME2 enzyme): > 90%
- inhibition at 10 µM (human ME1 enzyme): 70 to 89%

SMILES: O=C(CCCCc1ccccc1)N1CCN(c2ccc(O)cn2)CC1 [I.68, 1-[4-(5-Hydroxy-pyridin-2-yl)-piperazin-1-yl]-5-phenylpentan-1-one hydrochloride]
- inhibition at 10 µM (human ME3 enzyme): > 90%
- inhibition at 10 µM (human ME2 enzyme): 70 to 89%
- inhibition at 10 µM (human ME1 enzyme): > 90%

SMILES: COC(=O)c1ccccc1CCC(=O)N1CCN(c2ccc(O)cn2)CC1 [I.142, 2-{3-[4-(5-Hydroxy-pyridin-2-yl)-piperazin-1-yl]-3-oxo-propyl}-benzoic acid methyl ester]
- inhibition at 10 µM (human ME3 enzyme): > 90%
- inhibition at 10 µM (human ME2 enzyme): > 90%
- inhibition at 10 µM (human ME1 enzyme): 70 to 89%

SMILES: O=C(c1c2ccccc2nc2ccccc12)N1CCN(c2ccc(O)cc2)CC1 [I.9, Acridin-9-yl-[4-(4-hydroxy-phenyl)-piperazin-1-yl]-methanone]
- inhibition at 10 µM (human ME3 enzyme): > 90%
- inhibition at 10 µM (human ME2 enzyme): > 90%
- inhibition at 10 µM (human ME1 enzyme): > 90%

SMILES: O=C(c1c[nH]c2ccccc12)N1CCN(c2ccc(O)cn2)CC1 [I.43, [4-(5-Hydroxy-pyridin-2-yl)-piperazin-1-yl]-(1H-indol-3-yl)-methanone]
- inhibition at 10 µM (human ME3 enzyme): > 90%
- inhibition at 10 µM (human ME2 enzyme): 50 to 69%
- inhibition at 10 µM (human ME1 enzyme): > 90%

SMILES: Cn1cc(C(=O)N2CCN(c3ccc(O)cn3)CC2)c2ccccc21 [I.71, [4-(5-Hydroxy-pyridin-2-yl)-piperazin-1-yl]-(1-methyl-1H-indol-3-yl)-methanone]
- inhibition at 10 µM (human ME3 enzyme): > 90%
- inhibition at 10 µM (human ME2 enzyme): 70 to 89%
- inhibition at 10 µM (human ME1 enzyme): > 90%

SMILES: O=C(O)c1cccc(-c2cc(C(=O)N3CCN(c4ccc(O)cc4)CC3)cc(N3CCOCC3)n2)c1 [I.41, 3-[4-[4-(4-Hydroxy-phenyl)-piperazine-1-carbonyl]-6-morpholino-2-pyridyl]-benzoic acid]
- inhibition at 10 µM (human ME3 enzyme): > 90%
- inhibition at 10 µM (human ME2 enzyme): > 90%
- inhibition at 10 µM (human ME1 enzyme): > 90%

SMILES: O=C(c1ccnc(N2CCCCC2)c1)N1CCN(c2ccc(O)cc2)CC1 [I.50, [4-(4-Hydroxy-phenyl)-piperazin-1-yl]-[2-(1-piperidyl)-4-pyridyl]-methanone]
- inhibition at 10 µM (human ME3 enzyme): > 90%
- inhibition at 10 µM (human ME2 enzyme): > 90%
- inhibition at 10 µM (human ME1 enzyme): > 90%

SMILES: Cc1cccc(C)c1CCC(=O)N1CCN(c2ccc(O)cn2)CC1 [I.147, 3-(2,6-Dimethyl-phenyl)-1-[4-(5-hydroxy-pyridin-2-yl)-piperazin-1-yl]-propan-1-one]
- inhibition at 10 µM (human ME3 enzyme): > 90%
- inhibition at 10 µM (human ME2 enzyme): > 90%
- inhibition at 10 µM (human ME1 enzyme): > 90%

SMILES: O=C(CC1CC1)N1CCN(c2ccc(O)cn2)CC1 [I.137, 2-Cyclo-propyl-1-[4-(5-hydroxy-2-pyridyl)-piperazin-1-yl]ethanone]
- inhibition at 10 µM (human ME3 enzyme): > 90%
- inhibition at 10 µM (human ME2 enzyme): > 90%
- inhibition at 10 µM (human ME1 enzyme): > 90%

SMILES: O=C(CC1c2ccccc2-c2ccccc21)N1CCN(c2ccc(O)cn2)CC1 [I.61, 2-(9H-Fluoren-9-yl)-1-[4-(5-hydroxy-2-pyridyl)-piperazin-1-yl]ethanone]
- inhibition at 10 µM (human ME3 enzyme): > 90%
- inhibition at 10 µM (human ME2 enzyme): 70 to 89%
- inhibition at 10 µM (human ME1 enzyme): 70 to 89%

SMILES: O=C(C1Cc2ccccc2C1)N1CCN(c2ccc(O)cn2)CC1 [I.67, [4-(5-Hydroxy-pyridin-2-yl)-piperazin-1-yl]-indan-2-yl-methanone]
- inhibition at 10 µM (human ME3 enzyme): > 90%
- inhibition at 10 µM (human ME2 enzyme): 50 to 69%
- inhibition at 10 µM (human ME1 enzyme): > 90%

SMILES: O=C(Cc1ccccc1)N1CCN(c2ccc(O)cc2)CC1 [I.1, 1-[4-(4-hydroxyphenyl)piperazin-1-yl]-2-phenylethanone]
- inhibition at 10 µM (human ME3 enzyme): > 90%
- inhibition at 10 µM (human ME2 enzyme): > 90%
- inhibition at 10 µM (human ME1 enzyme): > 90%

SMILES: O=C(CCn1ccc2ccccc21)N1CCN(c2ccc(O)cn2)CC1 [I.135, 1-[4-(5-Hydroxy-pyridin-2-yl)-piperazin-1-yl]-3-indol-1-yl-propan-1-one]
- inhibition at 10 µM (human ME3 enzyme): > 90%
- inhibition at 10 µM (human ME2 enzyme): > 90%
- inhibition at 10 µM (human ME1 enzyme): 70 to 89%

SMILES: O=C(c1cc2ccccc2oc1=O)N1CCN(c2ccc(O)cn2)CC1 [I.73, 3-[4-(5-Hydroxy-2-pyridyl)-piperazine-1-carbonyl]-chromen-2-one]
- inhibition at 10 µM (human ME3 enzyme): > 90%
- inhibition at 10 µM (human ME2 enzyme): 70 to 89%
- inhibition at 10 µM (human ME1 enzyme): 70 to 89%

SMILES: O=C(CCn1cnc2ccccc21)N1CCN(c2ccc(O)cn2)CC1 [I.136, 3-Benzo-imidazol-1-yl-1-[4-(5-hydroxy-pyridin-2-yl)-piperazin-1-yl]-propan-1-one]
- inhibition at 10 µM (human ME3 enzyme): > 90%
- inhibition at 10 µM (human ME2 enzyme): > 90%
- inhibition at 10 µM (human ME1 enzyme): 70 to 89%
